Six compounds from the NIST ThermoML archive (doi:10.1021/je500380x) can be followed below.

The viscosity is the resistance of a fluid to flow. The mass density is mass per unit of volume.

± gives the expanded uncertainty stated by the source.

The conditions of data set [1]: 298.15 K, 101.33 kPa, Liquid; for viscosity: Falling or rolling sphere viscometry; for mass density: Vibrating tube method.
A short description of data set [2]: mn = molality of the nth substance listed, in mol/kg. The following applies: 100 kPa, Liquid, m2 = 0; for viscosity: Falling or rolling sphere viscometry; for mass density: Vibrating tube method.

As for `CCO` [ethanol], in data set [1], the viscosity is on record as 1.083 ± 0.013 mPa·s and the mass density was determined as 785.339 ± 0.13 kg/m3.
As for `CCO` [ethanol] + CCC(=O)OCCN1CCNCC1, the viscosity in data set [2] (293.15 K) was 1.189 ± 0.015 mPa·s; in data set [2] (298.15 K) it was 1.083 ± 0.013 mPa·s; in data set [2] (303.15 K), 0.989 ± 0.012 mPa·s; in data set [2] (308.15 K), 0.905 ± 0.011 mPa·s; in data set [2] (313.15 K), 0.831 ± 0.01 mPa·s; in data set [2] (318.15 K), 0.765 ± 0.009 mPa·s. In data set [2] (323.15 K), the viscosity turned out to be 0.706 ± 0.009 mPa·s. Also, the mass density is 789.64 ± 0.15 kg/m3 in data set [2] (293.15 K); 785.34 ± 0.15 kg/m3 in data set [2] (298.15 K); 781.03 ± 0.15 kg/m3 in data set [2] (303.15 K); 776.68 ± 0.16 kg/m3 in data set [2] (308.15 K); 772.29 ± 0.16 kg/m3 in data set [2] (313.15 K); 767.86 ± 0.16 kg/m3 in data set [2] (318.15 K). For the same compound, the mass density in data set [2] (323.15 K) is 763.38 ± 0.16 kg/m3.
As for `CO` [methanol], in data set [1], the viscosity is 0.559 ± 0.011 mPa·s and the mass density is 786.671 ± 0.13 kg/m3.
On to `CO` [methanol] + CCC(=O)OCCN1CCNCC1, for which the viscosity in data set [2] (293.15 K) amounted to 0.595 ± 0.007 mPa·s; in data set [2] (298.15 K) it was 0.559 ± 0.007 mPa·s; in data set [2] (303.15 K), 0.527 ± 0.007 mPa·s; in data set [2] (308.15 K), 0.498 ± 0.006 mPa·s; in data set [2] (313.15 K), 0.471 ± 0.006 mPa·s; in data set [2] (318.15 K) it was 0.448 ± 0.006 mPa·s. Further, the viscosity in data set [2] (323.15 K) worked out at 0.428 ± 0.005 mPa·s. Besides, the mass density in data set [2] (293.15 K) turned out to be 791.38 ± 0.15 kg/m3; in data set [2] (298.15 K) it was 786.67 ± 0.15 kg/m3; in data set [2] (303.15 K), 781.95 ± 0.15 kg/m3; in data set [2] (308.15 K), 777.2 ± 0.16 kg/m3; in data set [2] (313.15 K), 772.43 ± 0.16 kg/m3; in data set [2] (318.15 K) it was 767.62 ± 0.16 kg/m3. In addition, in data set [2] (323.15 K), the mass density came to 762.77 ± 0.16 kg/m3.
In the case of `O` [water], the viscosity in data set [1] is 0.887 ± 0.012 mPa·s.
Turning to `O` [water] + CCC(=O)OCCN1CCNCC1, the viscosity in data set [2] (293.15 K) was 0.994 ± 0.012 mPa·s; in data set [2] (298.15 K) it was 0.887 ± 0.011 mPa·s; in data set [2] (303.15 K) it was 0.799 ± 0.01 mPa·s; in data set [2] (308.15 K), 0.726 ± 0.009 mPa·s; in data set [2] (313.15 K), 0.665 ± 0.008 mPa·s; in data set [2] (318.15 K), 0.614 ± 0.008 mPa·s. Further, the viscosity in data set [2] (323.15 K) worked out at 0.567 ± 0.007 mPa·s. In addition, the mass density in data set [2] (308.15 K) is given as 994.07 ± 0.11 kg/m3.
